In patent publication US20130109581A1, “POSITIVELY CHARGED SPECIES AS BINDING REAGENTS IN THE SEPARATION OF PROTEIN AGGREGATES FROM MONOMERS” (priority 2009, published 2013):
Values joined by “and” are separate entries in the source; they are usually repeats but may differ in a detail not shown here. Identical values can stand only once.

Tests used:
[1] = biological target: T1, E22G globulomer (beta amyloid 1-42, Arctic mutation) (Homo sapiens, UniProt P05067, E693G); experiment: NMPA capture of E22G globulomer; type: binding; conditions: neutrally charged mutant; FIG. 8
T1 construct: Three beta amyloid 1-42 peptides were generated to test the role of E22; purchased Anaspec
Description: (§1) Three beta amyloid 1-42 peptides were generated to test the role of E22: a wild-type peptide, a mutant peptide containing Arctic mutation E22G with a neutral charge, and a mutant peptide containing Italian mutation E22K with a positive charge. Synthetic peptides were commercially available from Anaspec.
(§2) Mutant peptides were oligomerized according to the methods described in Example 3.
NMPA was used to evaluate the ability of PSR1 to capture the E22G globulomer. The methods used are described in Example 2.

[2] = biological target: T2, E22K globulomer (beta amyloid 1-42, Italian mutation) (Homo sapiens, UniProt P05067, E693K); experiment: NMPA capture of E22K globulomer; type: binding; conditions: positively charged mutant; FIG. 10
T2 construct: Three beta amyloid 1-42 peptides were generated to test the role of E22; purchased Anaspec
Description: as §1, §2

amylin fibrils = amylin fibrils (Homo sapiens, UniProt P10997); experiment: MPA of in vitro synthesized amylin; type: binding; conditions: buffer and plasma; FIG. 45
263K prion infectivity = tested on: 263K prion infectivity; set-up: species or system Tg(SHaPrP) mice; conditions: mouse, in vivo
PrP^Sc = PrP^Sc (Mesocricetus auratus, UniProt P04273)
prion protein = prion protein (Homo sapiens, UniProt P04156)

Chain of amylin fibrils (P10997 34-70 limits assumed): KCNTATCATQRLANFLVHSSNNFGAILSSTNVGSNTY
Chain of PrP^Sc (P04273 23-231 limits assumed): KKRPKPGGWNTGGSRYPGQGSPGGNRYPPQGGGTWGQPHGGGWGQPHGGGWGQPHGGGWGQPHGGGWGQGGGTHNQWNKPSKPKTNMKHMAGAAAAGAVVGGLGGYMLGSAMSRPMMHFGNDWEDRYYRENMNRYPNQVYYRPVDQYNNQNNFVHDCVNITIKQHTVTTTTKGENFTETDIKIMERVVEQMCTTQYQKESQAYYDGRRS

Nab-Nab-Nab-Nbn-Nab-Nbn [PSR1]
capture of E22G globulomer [1]: not captured
capture of E22K globulomer [2]: captured efficiently
binding to amylin fibrils over monomers (amylin fibrils): bind preferentially to in vitro-synthesized amylin fibrils over amylin monomers in both buffer (A) and plasma (B)
125 μl pooled plasma corresponds to 30 μl of a dilution of 263 K hamster brain homogenate (263K prion infectivity): 10^−8 dilution of 263 K and 10^−7 dilution of 263 K
Attack rate (Clinical TSE/total inoculated) (263K prion infectivity): 100% (8/8) and 50% (2/4) and 100% (4/4) and 81% (13/16)
Mean incubation period (days) (263K prion infectivity): 74 ± 3 dpi and 76 ± 5 dpi and 94 ± 5 dpi
capture and transmission of prion infectivity (263K prion infectivity): capture prion infectivity from prion-infected blood samples and transmit it with high efficiency to Tg(SHaPrP) mice
incubation period (days) (263K prion infectivity): 56, 85 days
mean incubation times (263K prion infectivity): 74-94 days post inoculation
PrP^Sc capture signal (PrP^Sc): Signal was observed with the 100 or 300 ng/mL spike levels
distinguishing control and vCJD brain homogenates, prion protein detected (prion protein): clearly distinguished between control and either vCJD or AD samples
